We go through 1 compound from patent US10117890B2, “Methods and compositions for treating pain” (Academia Sinica, priority 2012, dated 2018).

The test system of the assay is ASIC3-expressing muscle nociceptors. The experiment in a line: Whole-cell patch clamp of acid-induced current in ASIC3-expressing muscle nociceptors. The conditions noted are these: T1-11 10 nM; n=9. It is filed as cell-based, mice. The protocol:
To retrograde-trace muscle-afferent DRG neurons, mice were injected with 4% Fluorogold (Fluorochrome, Denver, Colo.) into the GM of both legs for 5 to 7 days, then lumbar DRG neurons were dissected and removed from both sides and placed in a tube for digestion with 1 ml DMEM containing 0.125% type 1 collagenase for 90 min and 0.25% trypsin for 20 min at 37° C. The digested DRG neurons were washed with fetal calf serum (FCS)-free DMEM or DMEM containing 10% FCS during each treatment. Fully digested DRGs were triturated and plated on poly-L-lysine-coated cover slides. Cell cultures were maintained in a 5% CO2 incubator at 37° C.
Whole-cell patch-clamp recordings of muscle-afferent neurons involved use of Axopatch MultiClamp 700B (Axon Instruments). Neurons with membrane potential >−40 mV were discarded. […]
Voltage-clamp mode was used to examine the effect of SP on acid-induced currents in ASIC3-expressing DRG neurons. A total of 40 GM and 6 non-GM DRG neurons were recorded in voltage-clamp mode with Vm held at −70 mV. […] To validate whether the modulation of SP on acid-induced current was NK1-receptor specific, acid-induced current was first recorded in a bath containing 10 μM RP67580 for 2 min as a control response. […] Acid-induced current was recorded in a bath containing both SP and genistein (30 μM; Tocris), or both SP and daidzein (30 μM; Tocris) for 3 min. […]
Background: Patch clamp records ionic current or voltage across a cell membrane.

“Also recorded” adds a separate entry of the source.

Turning to `OC[C@H]1O[C@@H](n2cnc3c(NCc4ccc(O)cc4)ncnc32)[C@H](O)[C@@H]1O` [T1-11, N^6-(4-hydroxybenzyl)adenosine], the “acid-induced current in ASIC3-expressing muscle nociceptors” value was “is enough to inhibit acid-induced current; also recorded: inhibited acid-induced current in all ASIC3-expressing muscle nociceptors”.
